From patent publication EP1079840B1, “SYNERGISTIC COMPOSITION OF INULIN AND AN ANTI-CANCER DRUG FOR USE IN THE TREATMENT OF CANCER” (Tiense Suikerraffinaderij N.V. (Raffinerie Tirlemontoise …, priority 1998, dated 1999)

Test system: ascitic form of a transplantable mouse liver tumor (TLT)
Experiment: Survival (increase of life span) of mice bearing the intraperitoneally transplanted ascitic TLT tumor
Assay type: in vivo, NMRI male mice
Conditions: for therapeutic effect (character of chemotherapy potentiating effect): cytotoxic drug combined with dietary FOS or inulin
Excerpt: Viable, neoplastic cells (10^6) from the ascitic form of a transplantable mouse liver tumor (TLT) (Taper, 1966 and Cappucino, 1966) were intraperitoneally transplanted into 12 per group young adult NMRI male mice weighing about 30 g, supplied by "Animalerie Facultaire", UCL, Brussels. Mice of the experimental groups were fed with a basal diet supplemented with 15 % FOS or inulin starting 7 days before tumor transplantation up to the end of the experiment. Control animals received the basal diet for experimental animals AO4 furnished by UAR, Villemoisson sur Orge, France, and water ad libitum.
A single, subtherapeutic dose of cytotoxic drugs was intraperitoneally injected 48 hours after intraperitoneal TLT tumor transplantation at following doses: endoxan 80 mg/kg; adriamycin 0.1 mg/kg; oncovin 0.5 mg/kg and 5-fluorouracil 40 mg/kg.
The criteria for the evaluation of results were the mortality rates expressed by mean survival time (MST) and the percentage of increase of life span (ILS) in experimental groups compared with the controls, calculated according to the NCI instructions (Geron et al., 1972). The results of each experiment were confirmed by another experiment performed at another time and were cumulatively calculated (as presented in Table 1). The results concerning the survival rates of mice bearing the ascitic form of a TLT tumor, observed in 2 separately performed experiments on each type of anti-cancer drug (12 mice per group), are cumulatively presented in Table 1 below.
In a further experiment, carried out in a similar manner as the previous experiment, the effects were examined of a composition according to the invention, containing a combination of the anti-metabolite anti-cancer drug methotrexate and inulin or FOS, in comparison with the effects of the single components. The effects were evaluated via the survival criteria of N.M.RI mice bearing ascitic TLT tumors, treated with a single i.p. dose of 20 mg/kg methotrexate (10 investigated mice in each group) and the results are presented in Table 2 below.

[1] = increase of life span vs own untreated control group, 15 % FOS or inulin in diet from 7 days before transplantation, single i.p. dose 48 hours after transplantation: endoxan 80 mg/kg, adriamycin 0.1 mg/kg, oncovin 0.5 mg/kg, 5-fluorouracil 40 mg/kg, 2 experiments cumulated

Row | Structure (SMILES) | ILS (%) (Table 2, methotrexate single i.p. dose of 20 mg/kg, dietary FOS or inulin, 10 mice in each group) | therapeutic effect (character of chemotherapy potentiating effect) | ILS (%) [1] [%]
1 | CN(Cc1cnc2nc(N)nc(N)c2n1)c1ccc(C(=O)N[C@@H](CCC(=O)O)C(=O)O)cc1 [methotrexate] | 2 | – | –
2 | COc1cccc2c1C(=O)c1c(O)c3c(c(O)c1C2=O)C[C@@](O)(C(=O)CO)C[C@@H]3O[C@H]1C[C@H](N)[C@H](O)[C@H](C)O1 [Adriamycin, adriamycin] | – | additive | 14.7
3 | O=P1(N(CCCl)CCCl)NCCCO1 (stereo not drawn) [Endoxan, cyclophosphamide] | – | additive | 0
4 | O=c1[nH]cc(F)c(=O)[nH]1 [5-Fluorouracil, 5-fluorouracil] | – | synergistic | 18.75
5 | CC[C@]1(O)C[C@H]2CN(CCc3c([nH]c4ccccc34)[C@@](C(=O)OC)(c3cc4c(cc3OC)N(C=O)[C@H]3[C@@](O)(C(=O)OC)[C@H](OC(C)=O)[C@]5(CC)C=CCN6CC[C@]43[C@@H]65)C2)C1 [Oncovin, vincristine sulphate] | – | additive | 33.33
